tested on: TEAD Reporter-MCF7 cell line; experiment: YAP/TEAD cellular activity assay: inhibition of TEAD-Luc activity in TEAD Reporter-MCF7 cell line; format: cell-based, human; details: Homo sapiens, MCF7, 24 h, TEAD Reporter-MCF7 cells, 24 hours incubation with compound, luciferase readout
Description: YAP/TEAD Cellular Activity Assay
Quantitation of Compound Potency on the Inhibition of TEAD-Luc Activity in TEAD Reporter-MCF7 Cell Line.
The TEAD Reporter-MCF7 cell line containing the firefly luciferase gene under the control of TEAD responsive elements stably integrated into the human breast cancer cell line was purchased from BPS Bioscience (Cat #60618). The cells were cultured with complete culture medium ([…], 1 mM sodium pyruvate, 10% fetal bovine serum, 10 ng/mL insulin and 400 ug/mL G418 sulfate) prior to the assay. For the assay, the cells were harvested, resuspended in the complete culture medium without G418, and seeded into white solid bottom 384-well cell culture microplates in 25 uL with 10,000 cells per well. The plates were incubated at 37° C. in a CO2 incubator for 20-24 hours and the compounds were then transferred from Echo LDV plates directly into the 384-well white tissue culture plates with an Echo. The plates were incubated at 37° C. in a CO2 incubator for 24 hours and equal volume of ONE-Glo™ EX Luciferase reagent (Promega, Cat #E8150) was added. After mixing on a shaker at room temperature for 10 minutes, the luciferase activity was measured with an Envision. The percentage inhibition and EC50 values of compounds were calculated with Spotfire.
Required Materials • 1. TEAD reporter-MCF-7 Cells (BPS Bioscience, #60618) • 2. Complete Cell Culture Medium (without selection antibiotics) • EMEM 89% (ATCC, #30-2003) • FBS 10% (Hyclone, #SH30088.03) • 1% Non essential amino acids (Gibco, • 1 mM sodium pyruvate (Gibco, • Pen/Strep, 1% (Gibco, #15140-122) • 10 ng/mL insulin (Sigma, #10516) • 3. Complete Cell Culture Medium (with selection antibiotics) • EMEM 89% (ATCC, #30-2003) • F1% Non essential amino acids (Gibco, • 1 mM sodium pyruvate (Gibco, • BS 10% (Hyclone, #SH30088.03) • 10 ng/mL insulin (Sigma, #10516) • 400 ug/mL G418 sulfate (Agilent, #200049-21) • 4. Miscellaneous tissue culture equipment and reagents. • 5. White solid 384-well tissue culture plate (Greiner, Cat #781080) • 6. One Glo EX luciferase assay system (Promega, #E8150)
The following table tabulates the biological data disclosed for the current invention. The biological data was collected using the methodology described above. For each compound, TEAD-Luc EC50 values are listed in nanomolar (nM) concentration units.

Row | EC50 | SMILES
1 | 447 nM | CNS(=O)(=O)c1ccc(Oc2ccc(SC(F)(F)F)cc2)c(-c2cnn3c2CCC3)c1 [3-1, 3-(5,6-Dihydro-4H-pyrrolo[1,2-b]pyrazol-3-yl)-N-methyl-4-(4-((trifluoromethyl)thio)phenoxy)benzenesulfonamide]
2 | 508 nM | CNS(=O)(=O)c1ccc(Oc2ccc(CC(F)(F)F)cc2)c(-c2cnn3c2CCC3)c1 [3-6, 3-(5,6-dihydro-4H-pyrrolo[1,2-b]pyrazol-3-yl)-N-methyl-4-[4-(2,2,2-trifluoroethyl)phenoxy]benzene-1-sulfonamide]
3 | 4920 nM | CNS(=O)(=O)c1ccc(Oc2ccc(C(F)(F)F)cc2)c(-c2ccc(OC)c3nc(C(F)(F)F)[nH]c23)c1 [2-3, 3-[4-methoxy-2-(trifluoromethyl)-1H-benzimidazol-7-yl]-N-methyl-4-[4-(trifluoromethyl)phenoxy]benzene-1-sulfonamide]
4 | 15.3 nM | CNS(=O)(=O)c1ccc(Oc2ccc(C)cc2F)c(-c2cn3c(n2)CCC3)c1 [4-19, 3-(6,7-dihydro-5H-pyrrolo[1,2-a]imidazol-2-yl)-4-(2-fluoro-4-methylphenoxy)-N-methylbenzene-1-sulfonamide]
5 | 17.8 nM | O=S(=O)(NC1CC1)c1ccc(Oc2ccc(C(F)(F)F)cc2)c(-c2cn3c(n2)CCC3)c1 [7-3, N-cyclopropyl-3-(6,7-dihydro-5H-pyrrolo[1,2-a]imidazol-2-yl)-4-(4-(trifluoromethyl)phenoxy)benzenesulfonamide]

Second part, the compound before the results:

Row | SMILES | EC50
6 | CNS(=O)(=O)c1ccc(Oc2ccc(F)cc2)c(-c2cnn3c2OCC3)c1 [1-46, 3-(2,3-dihydropyrazolo[5,1-b]oxazol-7-yl)-4-(4-fluorophenoxy)-N-methylbenzenesulfonamide] | 1860 nM
7 | CNS(=O)(=O)c1ccc(Oc2ccc(C(F)(F)F)cc2)c(-c2nc3ccccc3s2)c1 [1-28, 3-(1,3-benzothiazol-2-yl)-N-methyl-4-[4-(trifluoromethyl)phenoxy]benzene-1-sulfonamide] | 66.6 nM
8 | CNS(=O)(=O)c1ccc(Oc2ccc(C(F)(F)F)cc2)c(-c2cn3c(n2)COCC3)c1 [1-3, 3-(5,6-Dihydro-8H-imidazo[2,1-c] [1,4]oxazin-2-yl)-N-methyl-4-(4-(trifluoromethyl)phenoxy)benzenesulfonamide] | 36.2 nM
9 | CNS(=O)(=O)c1ccc(Oc2ccc(C(F)(F)F)cc2)c(-c2cn3ccc(C)cc3n2)c1 [1-31, N-methyl-3-(7-methylimidazo[1,2-a]pyridin-2-yl)-4-[4-(trifluoromethyl)phenoxy]benzene-1-sulfonamide] | 40.6 nM
10 | CNS(=O)(=O)c1ccc(Oc2ccc(C(F)(F)F)cc2)c(-c2nc(C)n3c2COCC3)c1 [1-22, N-methyl-3-(3-methyl-5,6-dihydro-8H-imidazo[5,1-c][1,4]oxazin-1-yl)-4-[4-(trifluoromethyl)phenoxy]benzene-1-sulfonamide] | 1820 nM
11 | CNS(=O)(=O)c1ccc(Oc2ccc(C(F)(F)F)cc2)c(-c2cnc3c(C)cccn23)c1 [1-4, N-Methyl-3-(8-methylimidazo[1,2-a]pyridin-3-yl)-4-(4-(trifluoromethyl)phenoxy)benzenesulfonamide] | 6030 nM
12 | CNS(=O)(=O)c1ccc(Oc2ccc(C(F)(F)F)cc2)c(-c2nc3ncccn3n2)c1 [1-10, N-methyl-3-([1,2,4]triazolo[1,5-a]pyrimidin-2-yl)-4-[4-(trifluoromethyl)phenoxy]benzene-1-sulfonamide] | 454 nM
13 | CNS(=O)(=O)c1ccc(Oc2ccc(C(F)F)cc2)c(-c2cn3c(n2)CCC3)c1 [1-40, 4-[4-(difluoromethyl)phenoxy]-3-(6,7-dihydro-5H-pyrrolo[1,2-a]imidazol-2-yl)-N-methylbenzene-1-sulfonamide] | 27 nM
14 | CNS(=O)(=O)c1ccc(Oc2ccc(F)c(F)c2)c(-c2cnn3c2OCC3)c1 [1-48, 4-(3,4-difluorophenoxy)-3-(2,3-dihydropyrazolo[5,1-b]oxazol-7-yl)-N-methylbenzenesulfonamide] | 1060 nM

From patent publication US20240083903A1, “ARYL ETHER COMPOUNDS AS TEAD MODULATORS” (Merck Sharp& Dohme LLC, priority 2021, published 2024)
